Test results from patent US20160193240A1, “Ulmoside-A: Useful For Prevention Or Cure Of Metabolic Diseases” (COUNCIL OF SCIENTIFIC & INDUSTRIAL RESEARCH, priority 2013, published 2016).

Experiments:
[1] = system: AdipoRs; experiment: Competitive radio-ligand binding assay with 125I-adiponectin on C2C12 myotubes; parameters: species or system mouse; details: 10^-11 M to 10^-6 M unlabeled ULMA, 12 hours, 4° C.
Protocol: C. ULMA competes with ^125I-globular adiponectin (gAd) for binding to AdipoRs. C2C12 myotubes in 12 well plates were incubated with 2 μl of 10 uCi/ml ^125I-adiponectin (this amount gives 50% binding to the cells) in ice-cold PBS and 0.1% bovine serum albumin for 12 h in presence or absence of different doses of unlabeled ULMA (10^−11M, 10^−10 M, 10^−9 M, 10^−8 M, 10^−7M, 10^−6M) at 4° C. The cells were then washed 20 times in PBS and then lysed. 5 μl of the lysate was used for protein estimation using standard Bradford assay and rest of the lysate was used for measuring radioactivity in a gamma-counter (Cole Palmer). The count per minute was normalized with protein concentration and plotted as % binding compared to wells treated with vehicle only (0.1% vol/vol DMSO). Data represents mean±SEM from three experiments performed in triplicates.
Competitive Radio-Ligand Binding Assay
Further validation of AdipoR-ULMA interaction was obtained using a competitive radio-ligand binding assay. […] 5 μl of the lysate was used for protein estimation using standard Bradford assay and rest of the lysate was used for measuring radioactivity in a gamma-counter (Cole Palmer). […]

[2] = system: C2C12 myotubes; experiment: Mitochondrial DNA content by QRT-PCR in C2C12 myotubes; type: cell-based, mouse; details: 10 nM, 72 hours
Protocol: D. ULMA increases mitochondrial DNA content. C2C12 myotubes in 6 well plates were treated with vehicle (0.1% vol/vol DMSO) or 10 nM ULMA (in DMSO) for 72 h. Following which, total cellular DNA was isolated from these cells by standard procedure (using a genomic DNA isolation kit; Macherey Nagel; according to manufacturer's instructions) and the mitochondrial DNA content was measured by QRT-PCR based measurement of mitochondrial coxII (Mit-CoxII) and cytochrome b (Cytb) and normalized with genomic glycerol three phosphate dehydrogenase DNA level. Data represent mean±SEM from three independent experiments performed in triplicates. *p<0.05 as determined by two tailed unpaired student's t-test.
Adiponectin is also known to activate PGC-1α by indirectly deacetylating this protein through activation of sirt1 (M. Iwabu, T. Yamauchi, M. Okada-Iwabu, K. Sato, T. Nakagawa, M. Funata, M. Yamaguchi, S. Namiki, R. Nakayama, M. Tabata, H. Ogata, N. Kubota, I. Takamoto, Y. K. Hayashi, N. Yamauchi, H. Waki, M. Fukayama, I. Nishino, K. Tokuyama, K. Ueki, Y. Oike, S. Ishii, K. Hirose, T. Shimizu, K. Touhara, T. Kadowaki. Nature; 464(7293): 1313-1319. 2010), therefore PGC-1α acetylation status following ULMA treatment was checked in C2C12 cells. C2C12 myotubes plated in 10 cm dish were treated with vehicle (DMSO) or 10 nM ULMA in DMSO for 6 hours. […]

What does the source list for `O=C1c2c(cc(O)c([C@@H]3O[C@H](CO)[C@@H](O)[C@H](O)[C@H]3O)c2O)O[C@@H](c2ccc(O)c(O)c2)[C@@H]1O` [ULMA, (2S,3S)-(+)-3′,4′,5,7-tetrahydroxydihydroflavonol-6-C-β-D-glucopyranoside]?
displacement of 125I-adiponectin binding by cold ULMA [1]: dose-dependently replaced 125I-adiponectin binding; Cytochrome B (Cytb) DNA level [2]: enhanced; mitochondrial cytochrome oxidase II (COX-II) DNA level [2]: enhanced
